The values that follow are results of earlier work, collected in patent US20220249345A1, “PRODUCT FOR TREATING KERATINOUS FIBERS, CONTAINING SILANES OF SPECIFIC FORMULAE” (Henkel AG & Co. KGaA, priority 2019, published 2022).

Like-named read-outs stand apart in the source and are kept apart here.

As to `Nc1cc(S(=O)(=O)[O-])cc2cc(S(=O)(=O)[O-])c(N=Nc3ccccc3)c(O)c12.[Na+].[Na+]` [Acid Red 33, diantrium salt of 5-amino-4-hydroxy-3-(phenylazo)-naphthalene-2,7-disulphonate], for the setting “25° C.”, the solubility in water result is given as “about 2.5 g/L”.
`O=S(=O)([O-])c1ccc(N=Nc2c(O)ccc3ccccc23)cc1.[Na+]` [Acid Orange 7, sodium salt of 4-[(2-hydroxy-1-naphthyl)azo]benzene sulphonate]: the solubility in water entry (25° C.) was “more than 7 g/L”.
`O=C([O-])C1=NN(c2ccc(S(=O)(=O)[O-])cc2)C(=O)C1N=Nc1ccc(S(=O)(=O)[O-])cc1.[Na+].[Na+].[Na+]` (stereo not drawn) [Acid Yellow 23, trisodium salt of 4,5-dihydro-5-oxo-1-(4-sulfophenyl)-4-((4-sulfophenyl)azo)-1H-pyrazole-3-carboxylic acid]: the “solubility in water” value (at about 25° C.) is “highly soluble in water”.
